Measured values reported in patent US20050119337A1, “Methods of application of Schisandrin B in the preparation of anticancer medications” (priority 2003, published 2005).

Assays:
K562/vcr = experiment: Reversal of drug resistance, MTT assay, 48 h; format: cell-based; settings: FIG. 1
Protocol: To illustrate a method for reversal of drug resistance by application of Schisandrin B, cell lines K562/adr, K562/vcr (X. […] H. […] Cells were cultured in RPMI-1640 medium containing 10% fetal calf serum. […] The logarithmic growing cells were seeded into a 96 well plate (20,000 cells/well). Specific anticancer drugs (set forth in Table 1) and Schisandrin B in combination were added into the wells containing the select cell lines. […] Cell viability was assessed by MTT assays as described in X.

[1] = tested on: human epidermoid carcinoma MDR cell line KBV200; experiment: Reversal of drug resistance of KBV200, MTT assay, 72 h; format: cell-based; settings: Schisandrin B versus verapamil
Protocol: In this embodiment, the IC50 of anticancer drugs in the presence or absence of Schisandrin B toward MDR cells was determined.
MTT assays were carried out in triplicate against human leukemia MDR cell line K562/adr and human epidermoid carcinoma MDR cell line KBV200. MTT assays as described previously (X. Hu, et al., Chemotherapy 41:296-305 (1995)) were used to determine the cytotoxicity of each anticancer drug in the presence or absence of Schisandrin B or verapmil.
Cells were treated with specific anticancer drugs as set forth therein. […] “SchB” represents cells treated with anticancer drugs in the presence of Schisandrin B (10 μg/ml).

K562/adr = experiment: Reversal of resistance to doxorubicin (FIG. 1); format: cell-based, human; settings: in the presence of Schisandrin B
Protocol: To illustrate a method for reversal of drug resistance by application of Schisandrin B, cell lines K562/adr, K562/vcr (X. Hu et al., Chemotherapy 41:296-305 (1995)), and KBv200 (X. H. Zhang et al., Yao Xue Xue Bao 29:246-251 (1994)) were selected for use because these particular cell lines are characteristic of overexpression of P-glycoprotein. Cells were cultured in RPMI-1640 medium containing 10% fetal calf serum. The test compound Schisandrin B was dissolved in dimethyl sulfoxide (DMSO) (10 mg/ml as stock). The logarithmic growing cells were seeded into a 96 well plate (20,000 cells/well). Specific anticancer drugs (set forth in Table 1) and Schisandrin B in combination were added into the wells containing the select cell lines. Controls for each anticancer drug type without Schisandrin B were also seeded into the 96 well plate. […] Cell viability was assessed by MTT assays as described in X. Hu et al., Chemotherapy 41:296-305 (1995).

K562 cells = experiment: Cytotoxicity of Schisandrin B, MTT assay, 48 h; format: cell-based; settings: 10 and 20 μg/ml, FIG. 2
Protocol: (§1) To illustrate the cytotoxicity of Schisandrin B according to the present disclosure, cell lines selected for use include cancer cell lines K562, K562/Adr, K562/vcr; primary cultured cells, including human peripheral blood mononuclear cells (PBMC) and human fibroblast cells; noncancer cell lines, including human bone marrow stromal cell D6p4 and human liver cell HL-7702. Cells were cultured in RPMI-1640 medium containing 10% fetal calf serum. The logarithmic growing cells were seeded into a 96 well plate (20,000 cells/well).

[2] = tested on: MDR cells (K562/Adr, K562/vcr); experiment: Cytotoxicity of Schisandrin B, MTT assay, 48 h; format: cell-based; settings: 10 and 20 μg/ml, FIG. 2
Protocol: as §1

[3] = tested on: normal human cells (PBMC, fibroblast cells, bone marrow stromal cell D6p4, liver cell HL-7702); experiment: Cytotoxicity of Schisandrin B, MTT assay, 48 h; format: cell-based; settings: 10 and 20 μg/ml, FIG. 2
Protocol: as §1

P-glycoprotein [4] = target: T1, P-glycoprotein (Homo sapiens, UniProt P08183); experiment: Intracellular doxorubicin accumulation, flow cytometry; format: cell-based; settings: doxorubicin 5 μg/ml, Schisandrin B 10 μg/ml, 60-120 minutes, FIG. 3
T1 construct: The cell line selected was MDR cancer cell K562/adr and its parental drug sensitive cell K562; endogenous in cells; host or cells: K562/adr (doxorubicin-selected human leukemia MDR cell line)
T1 sequence (P08183 whole entry): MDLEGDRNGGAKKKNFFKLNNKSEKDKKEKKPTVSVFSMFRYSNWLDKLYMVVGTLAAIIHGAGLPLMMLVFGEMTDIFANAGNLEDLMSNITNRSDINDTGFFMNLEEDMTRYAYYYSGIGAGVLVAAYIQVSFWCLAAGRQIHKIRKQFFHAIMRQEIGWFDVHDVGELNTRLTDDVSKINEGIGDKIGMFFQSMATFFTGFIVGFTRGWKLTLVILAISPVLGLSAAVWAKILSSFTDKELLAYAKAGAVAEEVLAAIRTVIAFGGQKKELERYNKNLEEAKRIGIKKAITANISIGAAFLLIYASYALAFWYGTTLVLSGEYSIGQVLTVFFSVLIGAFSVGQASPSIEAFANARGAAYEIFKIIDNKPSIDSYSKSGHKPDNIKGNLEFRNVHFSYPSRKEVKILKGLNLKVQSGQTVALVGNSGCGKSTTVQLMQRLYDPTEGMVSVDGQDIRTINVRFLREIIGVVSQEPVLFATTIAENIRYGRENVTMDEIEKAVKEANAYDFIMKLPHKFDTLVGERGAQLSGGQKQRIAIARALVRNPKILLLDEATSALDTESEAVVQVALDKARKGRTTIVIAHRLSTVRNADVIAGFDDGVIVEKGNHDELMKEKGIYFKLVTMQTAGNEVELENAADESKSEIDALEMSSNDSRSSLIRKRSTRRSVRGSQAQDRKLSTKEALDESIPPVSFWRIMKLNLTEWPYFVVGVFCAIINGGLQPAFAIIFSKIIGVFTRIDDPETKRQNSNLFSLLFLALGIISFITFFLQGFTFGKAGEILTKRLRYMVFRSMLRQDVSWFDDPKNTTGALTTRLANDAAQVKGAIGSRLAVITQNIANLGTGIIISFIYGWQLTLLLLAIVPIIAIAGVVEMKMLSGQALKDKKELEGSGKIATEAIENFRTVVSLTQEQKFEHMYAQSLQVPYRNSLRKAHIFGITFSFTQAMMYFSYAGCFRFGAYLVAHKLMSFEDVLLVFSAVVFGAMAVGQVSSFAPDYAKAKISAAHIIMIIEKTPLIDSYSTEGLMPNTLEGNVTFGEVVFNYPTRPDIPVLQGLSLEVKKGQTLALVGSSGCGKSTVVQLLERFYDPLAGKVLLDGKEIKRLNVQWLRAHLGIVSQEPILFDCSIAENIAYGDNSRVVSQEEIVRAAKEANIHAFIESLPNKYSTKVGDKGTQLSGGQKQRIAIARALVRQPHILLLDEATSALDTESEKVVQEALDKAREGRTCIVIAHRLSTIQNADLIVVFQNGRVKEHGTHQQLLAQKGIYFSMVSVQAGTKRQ
Protocol: The cell line selected was MDR cancer cell K562/adr and its parental drug sensitive cell K562. Cells were cultured in RPMI-1640 medium containing 10% fetal calf serum in cell-culture flasks.

P-glycoprotein [5] = target: T1, P-glycoprotein; experiment: Daunorubicin accumulation, flow cytometry; format: cell-based; settings: daunorubicin 2 μg/ml, Schisandrin B 10 μg/ml, FIG. 5
Protocol: P-glycoprotein functions as a drug pump that unilaterally pumps the anticancer drugs out of MDR cancer cells. Inhibition of P-glycoprotein results in an increase of the intracellular drug concentration within cancer cells. The inhibition of P-glycoprotein is assessed by analyzing the anticancer drug concentration within the test cells in the presence or absence of Schisandrin B. […] Cells were collected at intervals of 15, 30, 60, 90, 120, and 160 minutes after incubation.

P-glycoprotein [6] = target: T1, P-glycoprotein; experiment: Rh-123 accumulation, flow cytometry; format: cell-based; settings: Rh-123 2 μg/ml, Schisandrin B 10 μg/ml, FIG. 6
Protocol: P-glycoprotein functions as a drug pump that unilaterally pumps the anticancer drugs out of MDR cancer cells. Inhibition of P-glycoprotein results in an increase of the intracellular drug concentration within cancer cells. The inhibition of P-glycoprotein is assessed by analyzing the anticancer drug concentration within the test cells in the presence or absence of Schisandrin B. […] Cells were collected at intervals of 15, 30, 60, 90, and 120 minutes after incubation. […] At least 50,000 cells were analyzed for each sample.

KBV200 cells = experiment: Intracellular distribution of daunorubicin and Rh-123, fluorescent microscope; format: cell-based, human; settings: KBV200, Schisandrin B 5 and 10 μg/ml, 1 hour, FIGS. 10 and 11
Protocol: To illustrate the effects of Schisandrin B on the intracellular distribution in MDR cancer cells, MDR cell KBV200 and its parental drug sensitive cell line KB were selected for use. […] The respective cultures were incubated at 37° C. for 1 hour, washed with ice-cold PBS, and the cells were observed under fluorescent microscope.

P-glycoprotein [7] = target: T1, P-glycoprotein; experiment: [3H]Azidopine photoaffinity labeling of P-glycoprotein; format: binding; settings: KBV200 cytoplasmic membranes, 1.0 μM azidopine, FIG. 14
Excerpt: To illustrate that Schisandrin B physically interacts with P-glycoprotein according to the present disclosure, [^3H]Azidopine Photoaffinity Labeling of P-glycoportein in the presence or absence of Schisandrin B was used. [^3H]Azidopine is a chemical having unique properties that enable it to interact with P-glycoprotein. If Schisandrin B is also able to interact with P-glycoprotein, the binding of P-glycoprotein with [^3H]Azidopine would be reduced in the presence of Schisandrin B.
The cytoplasmic membranes (enriched with P-glycoprotein) of MDR cell KBV200 were prepared according to the methods as described in May GL, et al., Int. J. Cancer 42:728-733(1988) and Hyafil F, et al., Cancer Res. 53:4595-4602(1993). Membranes were incubated with Schisandrin B for 40 minutes in the dark, followed by 1 hour incubation with 1.0 μM [H]azidopine. After UV irradiation for 2 minutes, the photolabeled membranes were subjected to SDS-PAGE on a 7.5% gel, followed by fluorography.

KBV200-implanted tumor = experiment: In vivo reversal of drug resistance, KBV200-implanted tumor; set-up: species or system Balb/c nude mice; settings: Balb/c nude mice bearing KBV200-implanted tumor
Protocol: Thirty nine Balb/c nu/nu female mice were inoculated subcutaneously with KBV200 cells (5×10^6 KBV200 cells/each mouse) on day 0. […] Mean body weights were recorded daily. All mice were observed once per day (or more) for mortality and signs of ill health (i.e., weight loss, change in appetite, or behavioral changes). Therapeutic comparisons were made between control and treatment groups by determining the tumor size. Tumor size was monitored approximately every other day by caliper measurements and calculated according to the formula [Tumor weight=(length×width^2)÷2]. The median survival times (MST) and the percent increase in life span (% ILS) were calculated as: % ILS=[(MSTtreatment/MSTcontrol)−1]×100.
“MST” represents median survival time. The survival rate (T/C %) was calculated by following equation: T/C(%)=[Average survival period in the test group/average survival period in the control group]×100. *P<0.05 compared to saline, vehicle, or Schisandrin B alone.

COc1cc2c(c(OC)c1OC)-c1c(cc3c(c1OC)OCO3)C[C@@H](C)[C@@H](C)C2 [Schisandrin B]
increase of sensitivity of K562/vcr to doxorubicin (K562/vcr; Schisandrin B 1 μg/ml): about 5 folds | increase of sensitivity of K562/vcr to doxorubicin (K562/vcr; Schisandrin B 10 μg/ml): ~12 folds | increase of sensitivity of K562/vcr to doxorubicin (K562/vcr; Schisandrin B 20 μg/ml): ~18 folds | potency in reversing vincristine resistance of KBV200 relative to verapamil [1]: about 5 folds | sensitivity of K562/adr to doxorubicin (K562/adr): greatly increased the sensitivity | cytotoxicity toward K562 cells (K562 cells): does demonstrate cytotoxicity | cytotoxicity toward MDR cells [2]: does not demonstrate cytotoxicity | cytotoxicity toward normal human cells [3]: does not demonstrate cytotoxicity | intracellular doxorubicin accumulation in K562/adr (P-glycoprotein [4]): restored intracellular doxorubicin accumulation | intracellular daunorubicin accumulation in K562/adr (P-glycoprotein [5]): restored intracellular daunorubicin accumulation | intracellular Rh-123 accumulation in KBV200 (P-glycoprotein [6]): restored intracellular Rh-123 accumulation | intracellular distribution of daunorubicin and Rh-123 in MDR cancer cells (KBV200 cells): partially restored | [3H]Azidopine binding with P-glycoprotein (P-glycoprotein [7]): inhibited | MST (KBV200-implanted tumor; doxorubicin 5 mg/kg i.v., Schisandrin B 50 mg/kg gastric intubation): 21.2 days | T/C (KBV200-implanted tumor; survival period in the test group / control group x 100): 101.9%
